From article PMC7810238, “Design, synthesis, and evaluation of Bothrops venom serine protease peptidic inhibitors” (The Journal of Venomous Animals and Toxins Including …, 2021)
Where no end group is shown, it is not given here. [ ]: non-standard residue; d: D form.

Assays:
[1] = test system: human trypsin; experiment: proteolytic activity of human trypsin, chromogenic substrate BAPNA; assay type: biochemical; conditions: peptide 60 µg/mL; trypsin 126 nM; pre-incubated 10 min 37°C, Tris/HCl 50 mM, CaCl2 0.02%, pH 8.0; BAPNA 1.25 mM, 20 min 37°C; 405 nm; triplicate
Protocol: Proteolytic activity of human trypsin was evaluated using the chromogenic substrate BAPNA (Sigma). Briefly, trypsin (126 nM) was pre-incubated for 10 minutes at 37°C with 60 µg/mL of each peptide in Tris/HCl buffer 50 mM containing CaCl2 0.02% (v/v), pH 8.0. Enzymatic reaction was initiated by addition of substrate (1.25 mM), followed by incubation at 37°C, for 20 minutes.
(§1) For all assays using chromogenic substrates, hydrolysis was quantified by evaluation of absorbance at 405 nm, in a spectrophotometer SpectraMax® Paradigm® Multi-Mode reader from Molecular Devices (Sunnyvale, CA).
(§2) SVSPs activity from BjV was also evaluated using the fluorogenic substrate Abz-Ser. Briefly, BjV (5 µg/100µL) was pre-incubated at 37 °C for 10 minutes with 100 µg/mL of each peptide, in PBS pH 7.4 containing 20mM NaCl. […] The substrate hydrolysis was monitored following fluorescence emitted at 420 nm, under excitation at 320 nm in a spectrofluorimeter (Victor 3^TM Perkin- Elmer, Boston, MA, USA), as described by Araujo et al. (2000). […]
(§3) Figure 2. […] (A) Batroxobin activity was evaluated after 20 min, at 37 °C, using the chromogenic substrate S-2238 and the indicated concentrations of synthetic peptides. (B, C, D) Commercial hSPs had their activity evaluated after 20 min, at 37 °C, using their specific chromogenic substrates and batroxobin inhibitory peptides at 60 µg/mL.

[2] = test system: batroxobin; experiment: batroxobin thrombin-like activity, chromogenic substrate S-2238; assay type: biochemical, B. moojeni; conditions: for inhibition of batroxobin activity: peptide 60 µg/mL, absorbance 405 nm
Protocol: (§4) Batroxobin and human thrombin activities were evaluated using the chromogenic substrate S-2238 (Chromogenix). Briefly, batroxobin (0.8 U) or human thrombin (0.8U) was pre-incubated at 37°C for 10 minutes with different concentrations (0 to 1 mg/mL for batroxobin, and 60 µg/mL, for human thrombin), of each peptide in Tris/HCl buffer […], containing CaCl2 0.02% (v/v), pH 8.0. Enzymatic reaction was initiated by addition of substrate (200µM), followed by incubation at 37°C, for 20 minutes. When serine protease activity from BjV was evaluated using the chromogenic substrate S2238, 5 µg of BjV and 60 µg/mL of each peptide were employed.
as §1
(§5) SVSPs activity from BjV was also evaluated using the fluorogenic substrate Abz-Ser. Briefly, BjV (5 µg/100µL) was pre-incubated at 37 °C for 10 minutes with 100 µg/mL of each peptide, in PBS pH 7.4 containing 20mM NaCl. Enzymatic reaction was initiated by addition of substrate (10 µM), followed by incubation at 37°C, for 20 minutes. The substrate hydrolysis was monitored following fluorescence emitted at 420 nm, under excitation at 320 nm in a spectrofluorimeter (Victor 3^TM Perkin- Elmer, Boston, MA, USA), as described by Araujo et al. (2000). All the experiments were made in triplicate.
Figure 2. Evaluation of the effects of synthetic peptides on batroxobin and on human serine proteases activities. (A) Batroxobin activity was evaluated after 20 min, at 37 °C, using the chromogenic substrate S-2238 and the indicated concentrations of synthetic peptides. (B, C, D) Commercial hSPs had their activity evaluated after 20 min, at 37 °C, using their specific chromogenic substrates and batroxobin inhibitory peptides at 60 µg/mL.

[3] = test system: human factor Xa; experiment: proteolytic activity of human factor Xa, chromogenic substrate CS-11(22); assay type: biochemical; conditions: peptide 60 µg/mL; factor Xa 20nM; pre-incubated 10 min 37°C, Tris/HCl 20 mM, NaCl 150 mM, pH 7.4; CS-11(22) 100µM, 20 min 37°C; 405 nm; triplicate
Protocol: Proteolytic activity of human factor Xa was evaluated using the chromogenic substrate CS-11(22) (Hyphen). Briefly, factor Xa (20nM) was pre-incubated for 10 minutes at 37°C with 60 µg/mL of each peptide in Tris/HCl buffer 20 mM, pH 7.4 containing NaCl 150 mM. Enzymatic reaction was initiated by the addition of substrate (100µM), followed by incubation at 37°C, for 20 minutes.
as §1, §2, §3

[4] = test system: human thrombin; experiment: human thrombin activity, chromogenic substrate S-2238; assay type: biochemical; conditions: peptide 60 µg/mL; human thrombin 0.8U; pre-incubated 10 min 37°C, Tris/HCl 0.15mM, CaCl2 0.02%, pH 8.0; S-2238 200 µM, 20 min 37°C; 405 nm; triplicate
Protocol: as §4, §1
as §5, with “All the experiments were made in triplicate.” left out

[5] = test system: Bothrops jararaca venom (BjV) SVSPs; experiment: BjV SVSPs activity, fluorogenic substrate Abz-Ser; assay type: biochemical; conditions: peptide 100 µg/mL; for inhibition of BjV serine protease activity on Abz-Ser: substrate Abz-Ser 10 µM, BjV 5 µg/100µL, pre-incubated 10 min 37°C, PBS pH 7.4, 20mM NaCl, 20 min 37°C, fluorescence 420 nm (ex 320 nm), triplicate
Protocol: as §5
Figure 3. Evaluation of synthetic peptides on Bothrops venom serine-proteases. BjV was pre-incubated with 100 µg/mL of pepB or pepC and a serine proteases activity was evaluated after 20 min, at 37 °C, with (A) 2 mM of substrate S2238 or (B) 10 µM of substrate Abz-Ser.

[6] = test system: Bothrops jararaca venom (BjV) serine proteases; experiment: BjV serine protease (thrombin-like) activity, chromogenic substrate S2238; assay type: biochemical; conditions: BjV 5 µg, peptide 60 µg/mL or 100 µg/mL, S2238 200 µM or 2 mM, 20 min 37°C, 405 nm, triplicate
Protocol: as §4, §1
as §5, with “All the experiments were made in triplicate.” left out

[7] = test system: Bothrops spp venom SVSPs; conditions: ref [9]; cited from earlier work
Protocol: In this context, the use of selective SVSPs inhibitory compounds, in association with available commercial antivenoms, could be a starting point for studies aiming snakebite treatment efficacy improvement. Therefore, in the present study, small peptides were evaluated as potential SVSPs inhibitors.

[8] = batroxobin 0.8 U, pre-incubated 10 min 37°C, Tris/HCl 0.15mM, CaCl2 0.02%, pH 8.0, S-2238 200 µM, 20 min 37°C, triplicate

Substance	effect on catalytic activity of human trypsin [1]	efficiency on batroxobin relative to pepC ([2]; pepB compared with pepC)	inhibition of batroxobin activity [2, 8] [%]	effect on catalytic activity of human factor Xa [3]	effect on catalytic activity of human thrombin [4]	inhibitory effect of pepB relative to pepC on BjV with Abz-Ser ([5]; pepB compared with pepC) [times less efficient]	inhibition of BjV serine protease activity on Abz-Ser [5] [%]	inhibition of BjV thrombin-like activity [6] [%]	selectivity as substrate for Bothrops spp venom SVSPs [7]	inhibition of batroxobin activity (in words) ([2]; tested until 1 mg/mL, batroxobin 0.8 U, pre-incubated 10 min 37°C, Tris/HCl 0.15mM, CaCl2 0.02%, pH 8.0, S-2238 200 µM, 20 min 37°C, triplicate)
PF[dR]QAS [pepB, 6-mer peptide related to pepA, D-Arg replacing Tyr]	none of the peptides inhibited human serine proteases	twice more efficient than pepC	36 ± 7	none of the peptides inhibited human serine proteases	none of the peptides inhibited human serine proteases	4	5.4 ± 0.7	15 ± 3		
Abz-RPPGFSPFRQ-EDDnp [Abz-Ser]									selective for Bothrops spp venom SVSPs	
PFYQAS [pepA, 6-mer peptide designed based on carboxyl-terminus of the substrate Abz-Ser]										did not inhibit batroxobin activity
PFYQSS [pepC, 6-mer peptide related to pepA, a Ser instead of Ala]	none of the peptides inhibited human serine proteases		18 ± 4	none of the peptides inhibited human serine proteases	none of the peptides inhibited human serine proteases		19.3 ± 0.7	18 ± 2		
